Measurements reported in patent US6043254A, “Indolinones having kinase-inhibiting activity” (Boehringer Ingelheim Pharma KG, priority 1998, dated 2000).

Columns and labels:
[1] = target: T1, cycline D1/CDK4 (Homo sapiens, UniProt P11802); experiment: Test 1: inhibition of cycline/CDK enzyme in vitro activity; type: biochemical; conditions: GST-tagged pRB substrate; 45 minutes at 30° C.; 1% DMSO
T1 construct: His6; made in house; host or cells: High Five insect cells (BTI-TN-5B1-4), recombinant baculovirus with two promoters
Excerpt: Inhibition of cycline/CDK Enzyme in vitro Activity
High Five™ insect cells (BTI-TN-5B1-4) which had been infected with a high titre of recombinant baculovirus were used to produce active human cycline/CDK holoenzymes. By using a baculovirus vector which contained two promoters (polyhedrin enhancer promoter, P10 enhancer promoter), GST-tagged cyclines (e.g. cycline D1 or cycline D3) with the corresponding His6 -tagged CDK subunit (e.g. for CDK4 or CDK6) were expressed in the same cell. The active holoenzyme was isolated by affinity chromatography on glutathione sepharose. Recombinant GST-tagged pRB (aa 379-928) was produced in E. coli and purified by affinity chromatography on glutathione sepharose.
The substrates used for the kinase assays depended on the specific kinases. Iistone H1 (Sigma) was used as the substrate for cycline E/CDK2, cycline A/CDK2, cycline B/CDK1 and for v-cycline/CDK6. GST-tagged pRB (aa 379-928) was used as substrate for cycline D1/CDK4, cycline D3/CDK4, cycline D1/CDK6 and for cycline D3/CDK6.
Lysates of the insect cells infected with recombinant baculovirus or recombinant kinases (obtained from the lysates by purification) were incubated together with radiolabelled ATP in the presence of a suitable substrate with various concentrations of the inhibitor in a 1% DMSO solution (dimethyl sulphoxide) for 45 minutes at 30° C. The substrate proteins with associated radioactivity were precipitated with 5% TCA (trichloroacetic acid) in water-repellent PVDF multi-well microtitre plates (Millipore) or with 0.5% phosphoric acid solution on Whatman P81 filters. After the addition of scintillation liquid the radioactivity was measured in a Wallace 1450 Microbeta Liquid Scintillation Counter. For each concentration of the substance double measurements were carried out; IC50 values were calculated for the enzyme inhibition.

[2] = tested on: SK-UT-1B cells (Leimyosarcoma tumour cell line); experiment: Test 2: inhibition of the proliferation of cultivated human tumour cells (14C-thymidine incorporation); type: cell-based; conditions: Skut1B, 48 hours' incubation, then 14C-thymidine for a further 24 hours, read-out: Inhibiting the proliferation of SKUT-1B cells: IC50
Description: Inhibition of the Proliferation of Cultivated Human Tumour Cells
Cells of the Leimyosarcoma tumour cell line SK-UT-1B (obtained from the American Type Culture Collection (ATCC)) were cultivated in Minimum Essential Medium with non-essential amino acids (Gibco), supplemented with sodium pyruvate (1 mmol), glutamine (2 mmol) and 10% foetal calf serum (Gibco) and harvested during the log-growth phase. Then the SK-UT-1B cells were added to Cytostar® multi-well plates (Amersham) at a density of 4000 cells per well and incubated overnight in an incubator. Various concentrations of the compounds (dissolved in DMSO; final concentration: <1%) were added to the cells. After 48 hours' incubation ^14 C-thymidine (Amersham) was added to each well and incubation was continued for a further 24 hours. The quantity of ^14 C-thymidine incorporated into the tumour cells in the presence of the inhibitor and representing the number of cells in the S phase was measured in a Wallace 1450 Microbeta Liquid Scintillation Counter. IC50 values for the inhibition of proliferation (=inhibition of incorporated ^14 C-thymidine) were calculated, correcting for the background radiation. All the measurements were done twice.

[3] = tested on: tumour (SK-UT-1B, or non-small cell lung tumour NCI-H460); experiment: Test 3: in vivo effects on tumour-bearing nude mice; design: species or system nude mice (NMRI nu/nu); conditions: 100 mg/kg p.o. once a day for two weeks; male nude mice (n=9); significant, p<0.05
Description: In vivo Effects on Tumour-bearing Nude Mice
10^6 cells [SK-UT-1B, or non-small cell lung tumour NCI-H460 (obtained from ATCC)] in a volume of 0.1 ml were injected subcutaneously into male and/or female nude mice (NMRI nu/nu; 25-35 g; N=10-20); alternatively, small fragments of SK-UT-1B or NCI-H460 cell clumps were implanted subcutaneously. One to three weeks after the injection or implantation a kinase inhibitor was administered daily by oral route for a period of 2 to 4 weeks (by oesophageal tube). The size of the tumour was measured three times a week using a digital sliding gauge. The effect of a kinase inhibitor on the tumour growth was determined as a percentage inhibition compared with a control group treated with placebo.

T1 sequence (P11802 whole entry): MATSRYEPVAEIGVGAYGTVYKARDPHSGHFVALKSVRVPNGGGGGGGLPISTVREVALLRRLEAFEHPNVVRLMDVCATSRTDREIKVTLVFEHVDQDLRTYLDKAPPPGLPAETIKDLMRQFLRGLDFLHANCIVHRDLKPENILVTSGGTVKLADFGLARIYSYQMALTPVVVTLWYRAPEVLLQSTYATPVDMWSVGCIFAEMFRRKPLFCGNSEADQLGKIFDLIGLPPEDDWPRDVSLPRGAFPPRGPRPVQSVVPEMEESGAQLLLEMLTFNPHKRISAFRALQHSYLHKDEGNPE
T1 sequence (P24385 whole entry partner): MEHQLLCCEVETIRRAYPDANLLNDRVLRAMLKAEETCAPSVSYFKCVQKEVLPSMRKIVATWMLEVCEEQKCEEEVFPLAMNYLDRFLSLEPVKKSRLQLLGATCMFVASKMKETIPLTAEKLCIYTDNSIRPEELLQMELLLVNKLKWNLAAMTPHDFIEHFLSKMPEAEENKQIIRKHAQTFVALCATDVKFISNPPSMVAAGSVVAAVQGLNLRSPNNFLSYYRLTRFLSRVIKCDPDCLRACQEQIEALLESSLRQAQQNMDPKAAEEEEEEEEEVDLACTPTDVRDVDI

Structure (SMILES) | IC50 [1] | IC50 [2] | reduction in the tumour size [3]
O=C1Nc2ccc([N+](=O)[O-])cc2/C1=C(/Nc1ccc(CCN2CCCC2)cc1)c1ccccc1 [Example 4.9, 3-{(Z)-1-[4-(2-(pyrrolidin-1-yl)ethyl)anilino]-1-phenylmethylidene}-5-nitro-2-indolin] | 55 nM |  | 
CC(=O)N1CCc2cc(N/C(=C3\C(=O)Nc4ccc([N+](=O)[O-])cc43)c3ccccc3)ccc2C1 [Example 18.2, 3-{(Z)-1-[(2-acetyl-1,2,3,4-tetrahydro-isoquinolin-6-yl)-amino]-1-phenylmethylidene}-5-nitro-2-indolinone] | 1400 nM |  | 
O=C1Nc2ccc([N+](=O)[O-])cc2/C1=C(/Nc1ccc(CN2C(=O)CCC2=O)cc1)c1ccccc1 [Example 4.11, 3{(Z)-1-[4-((2,5-dioxo-pyrrolidin-1-yl)methyl)anilino]-1-phenylmethylidene}-5-nitro-2-indolinone] |  | 530 nM | 
O=C1Nc2ccc([N+](=O)[O-])cc2/C1=C(/Nc1ccc2c(c1)CCNC2)c1ccccc1 [Example 14.1, 3-{(Z)-1-[(1,2,3,4-tetrahydro-isoquinolin-6-yl)amino]-1-phenylmethylidene}-5-nitro-2-indolinone] | 150 nM |  | 

Now from value to compound, other results behind:

IC50 [1] | IC50 [2] | Structure (SMILES) | reduction in the tumour size [3]
1000 nM | 340 nM | O=C1Nc2ccc([N+](=O)[O-])cc2/C1=C(/Nc1ccc(-c2c[nH]cn2)cc1)c1ccccc1 [Example 2.5] | around 65%
 | 1300 nM | O=C1Nc2ccccc2/C1=C(/Nc1ccc(-c2cn3cccnc3n2)cc1)c1ccccc1 [Example 8.3, 3-{(Z)-1-[4-(imidazo[1,2-a]pyrimidin-2-yl)anilino]-1-phenylmethylidene}-2-indolinone] | 
 | 220 nM | O=C1Nc2ccc([N+](=O)[O-])cc2/C1=C(/Nc1ccc(CN2CCCC2)cc1)c1ccccc1 [Example 3.18, 3-{(Z)-1-[4-((pyrrolidin-1-yl)methyl)anilino]-1-phenylmethylidene}-5-nitro-2-indolinone] | 
 | 400 nM | Cn1ccnc1-c1ccc(N/C(=C2\C(=O)Nc3ccc([N+](=O)[O-])cc32)c2ccccc2)cc1 [Example 3.12, 3-{(Z)-1-[4-(1-methyl-1H-imidazol-2-yl)anilino]-1-phenylmethylidene}-5-nitro-2-indolinone] | 
